Results on 3 substances are retold here after patent US20080182834A1, “Multi-Nuclear Metal Complexes Partially Encapsulated by Cucurbit[7-12]Urils” (NEWSOUTH INNOVATIONS PTY LIMITED, priority 2004, published 2008).

In assay [1] the test system is L1210/DDP cisplatin resistant cells. Put plainly: In vitro cytotoxic activity against cisplatin resistant L1210/DDP cells. The assay is classed as cell-based, murine. Conditions: concentration required to inhibit cell growth by 50%.
In assay [2] the test system is L1210 murine leukaemia cells. In words: In vitro cytotoxic activity against L1210 murine leukaemia cells. The assay is classed as cell-based. The settings on record: concentration required to inhibit cell growth by 50%.

Turning to “{trans-diamminebis{trans-diamminechloro(μ-1,6-hexanediamine)platinum(II)}platinum(II)}nitrate [BBR3464]”, the IC50 in assay [1] was 24.5 nM; in assay [2], 57 nM.
Take “{trans-diamminechloro(μ-dipyrazolylmethane)platinum(II)}chloride [Di-Pt]”: the IC50 in assay [1] was 8800 nM; in assay [2] it was 3800 nM.
In the case of “{trans-diamminechloro(μ-spermidine)platinum(II)}chloride [BBR3571]”, the IC50 is 7.5 nM in assay [1] and 11.5 nM in assay [2].

What is called IC50 is the concentration needed to halve the response being measured. A low value points to inhibition by little substance.
